The structures appear in SMILES notation. ≈ marks a conversion by molar mass, not a printed value.

Test [1] has as its target T1, Arylsulfatase A (Homo sapiens, UniProt P15289).
T1 sequence (P15289 whole entry): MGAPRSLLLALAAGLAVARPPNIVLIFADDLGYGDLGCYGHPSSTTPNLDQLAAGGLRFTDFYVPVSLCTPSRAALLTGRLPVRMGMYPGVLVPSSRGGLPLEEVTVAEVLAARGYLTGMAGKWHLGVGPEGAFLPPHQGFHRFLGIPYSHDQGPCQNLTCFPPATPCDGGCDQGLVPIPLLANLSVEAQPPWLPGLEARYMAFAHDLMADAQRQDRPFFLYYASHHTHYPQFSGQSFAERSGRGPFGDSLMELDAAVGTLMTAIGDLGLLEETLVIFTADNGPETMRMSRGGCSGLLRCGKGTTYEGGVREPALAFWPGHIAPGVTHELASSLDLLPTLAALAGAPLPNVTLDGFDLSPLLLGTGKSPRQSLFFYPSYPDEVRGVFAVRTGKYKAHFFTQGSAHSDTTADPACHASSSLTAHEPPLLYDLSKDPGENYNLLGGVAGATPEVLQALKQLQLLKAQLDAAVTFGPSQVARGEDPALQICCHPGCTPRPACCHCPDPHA
Kind of test: Inhibition of ARSA (unknown origin) using 4-methylumbelliferyl sulfate (4-MUS) as a substrate by fluorescent assay.

Test [2] addresses T1, Arylsulfatase A. Nature of the test: Binding affinity to ARSA (unknown origin) assessed as dissociation constant by SPR analysis. (In SPR one partner is held on a chip, and binding of the other changes the refractive index at the surface.)
The next test deals with GBM. Nature of the test: Anticancer activity against human GBM cells assessed as cell growth inhibition incubated for 72 hrs. Type of test: functional, cell-based.
Test [3] is described as follows: Inhibition of NFAT activity in human GBM cells. It is filed as cell-based.
Another test deals with U-87 MG. Kind of test: Cytotoxicity against human U87 cells assessed as reduction in cell viability measured after 72 hrs by MTT assay. Type of test: functional, cell-based, U-87MG ATCC.
The subject of another test is SGC-7901. Kind of test: Cytotoxicity against human SGC-7901 cells assessed as reduction in cell viability measured after 72 hrs by MTT assay. It is filed as functional, cell-based. Particulars: SGC-7901, 72 h.
A further test deals with MGC-803. Nature of the test: Cytotoxicity against human MGC-803 cells assessed as reduction in cell viability measured after 72 hrs by MTT assay. It is filed as functional, cell-based. Particulars: MGC-803, 72 h. (Formazan colour is commonly taken as a measure of viable cells.)
In another test the test system is Enterococcus hirae. Kind of test: Antibacterial activity against Enterococcus hirae ATCC 10541 assessed as growth inhibition after 24 hrs by two-fold serial dilution method. It is filed as functional.
Test [4] in a line: Inhibition of Hepatitis C virus NS3 helicase measured by fluorescence helicase assay. Details: species or system Hepacivirus hominis.
Another test deals with BXPC-3. Kind of test: Antitumor activity against human BXPC-3 cells assessed as reduction in cell viability and incubated for 3 hrs by MTT assay. The following applies: BXPC-3, 3 h. It is filed as functional, cell-based.
The test system of another test is PANC-1. Kind of test: Antitumor activity against human PANC-1 cells assessed as reduction in cell viability and incubated for 3 hrs by MTT assay. Type of test: functional, cell-based. The following applies: PANC-1, 3 h.
A further test deals with MIA PaCa-2. Kind of test: Antitumor activity against human MIA PaCa-2 cells assessed as reduction in cell viability and incubated for 3 hrs by MTT assay. Type of test: functional, cell-based. Particulars: MIA PaCa-2, 3 h.
For another test, the target named is Cholinesterase (Homo sapiens, UniProt P06276). Nature of the test: Inhibition of human BuChE at 550 uM using butyrylthiocholine chloride as substrate by Ellman's method.
The test system of a further test is MOLT-4. Kind of test: Cytotoxicity against human MOLT-4 cells assessed as inhibition of cell growth incubated for 24 to 72 hrs by MTT assay. Type of test: functional, cell-based.

Cholinesterase, sequence (P06276 whole entry): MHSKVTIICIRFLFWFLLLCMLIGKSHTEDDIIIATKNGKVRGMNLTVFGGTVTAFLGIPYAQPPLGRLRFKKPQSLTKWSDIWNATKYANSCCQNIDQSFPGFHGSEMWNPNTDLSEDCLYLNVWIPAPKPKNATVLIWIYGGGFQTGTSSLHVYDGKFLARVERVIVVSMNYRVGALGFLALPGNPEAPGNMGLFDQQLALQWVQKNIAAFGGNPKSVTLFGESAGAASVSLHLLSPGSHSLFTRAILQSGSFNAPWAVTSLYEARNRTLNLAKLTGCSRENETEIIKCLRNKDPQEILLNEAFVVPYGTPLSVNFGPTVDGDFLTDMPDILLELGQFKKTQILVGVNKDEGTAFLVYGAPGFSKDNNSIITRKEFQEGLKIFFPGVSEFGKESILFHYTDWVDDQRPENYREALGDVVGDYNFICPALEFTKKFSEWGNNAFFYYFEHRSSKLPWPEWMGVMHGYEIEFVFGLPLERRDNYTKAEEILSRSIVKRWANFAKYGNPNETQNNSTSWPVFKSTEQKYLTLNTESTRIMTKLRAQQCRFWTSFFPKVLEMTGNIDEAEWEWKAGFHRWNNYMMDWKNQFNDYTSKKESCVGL

Regarding `O=C1C=CC(=O)c2c1ccc1c2c(=O)oc2c3ccccc3ccc12`, on Arylsulfatase A [1], the IC50 (usually the concentration that inhibits the measured activity by half) was determined as 13.2 µM. For the same compound, on Arylsulfatase A [2], the dissociation constant Kd (usually the constant that tells how readily two partners part at equilibrium) stood at 21 µM.
With `Nc1c(-c2cccnc2)ncc2c1C(=O)c1c(-c3ccccn3)nn(-c3ccc(F)cc3F)c1C2=O`, the IC50 in the test on GBM was 25 µM.
On to `O=C1C=C(Nc2ccc3cnccc3c2)c2ccccc2C1=O`, for which the IC50 in [3] is 0.82 µM.
On to `CC(C)=CCC(OC(=O)CCC(=O)Nc1ccc(Oc2ccccc2)cc1)C1=CC(=O)c2c(O)ccc(O)c2C1=O` (stereo not drawn), for which the 50% inhibitory concentration (IC50) in the test on U-87 MG was determined as 3.8 µM; with SGC-7901, 4.1 µM; in the test on MGC-803, 4.1 µM.
Turning to `NC1=C(NC(=O)Cn2cc(CCBr)nn2)C(=O)c2ccccc2C1=O`, the MIC (commonly the least concentration at which growth counts as inhibited) in the test on Enterococcus hirae is 4 µg/mL (≈ 9.9 µM).
As for `O=C(O)c1cc(O)c2c(c1)[C@H]([C@@H]1c3cccc(O)c3C(=O)c3c(O)cc(C(=O)O)cc31)c1cccc(O)c1C2=O`, half-maximal inhibition in [4] (IC50) required 0.8 µM.
In the case of `NC1=C(NC(=O)Cn2cc(CC3CCCCC3)nn2)C(=O)c2ccccc2C1=O`, the MIC with Enterococcus hirae stood at 4 µg/mL (≈ 10.2 µM).
`O=C1c2c(O)ccc(O)c2C(=O)c2c(O)ccc(O)c21` returned an IC50 in test [4] of 6 µM.
Regarding `CC(=O)c1ccccc1NC1=CC(=O)c2ncncc2C1=O`, the IC50 in the test with BXPC-3 stood at 2.7 µM; in the test with PANC-1 it was 2.2 µM; in the test on MIA PaCa-2, 1.9 µM.
Turning to `CC1=C(NC2CCN(Cc3ccccc3)CC2)C(=O)c2ccccc2C1=O`, the IC50 against Cholinesterase is 0.0957 µM.
Turning to `Nc1c(-c2ccccc2)ncc2c1C(=O)c1c(-c3ccccn3)nn(-c3ccc(F)cc3F)c1C2=O`, in the test with GBM, the half-maximal inhibitory concentration (IC50) was 25 µM.
`C[C@@]12CCC(=O)c3coc(c31)C(=O)c1cc3c(cc12)C(=O)C=CC3=O` [HELENAQUINONE]: in the test with MOLT-4, the IC50 was found to be 1.44 µM.
In [4], `Cc1cc(O)c2c(=O)c3c(O)cc(O)c4c5c(O)cc(O)c6c(=O)c7c(O)cc(C)c8c1c2c(c34)c(c78)c65` [HYPERICIN] yielded an IC50 of 3 µM.
